“And” between values parts separate entries of the source, which are not always exact repeats. Identical values can stand only once.
Columns and labels:
Assay in all cases: apoptosis induction in cancer cell lines, late-stage follow-up, mechanism study for MCL1-BIM inhibitor project, imaging, DAPI staining, cell line panel, probe (AID 624396)
[1] = tested on: 1780 MCl1; conditions: DAPI nuclear morphology
[2] = tested on: 1863 BCL-XL; conditions: DAPI nuclear morphology
[3] = tested on: DHL-10; conditions: DAPI nuclear morphology, single IC50 determination, other campaign
[4] = tested on: DHL-6; conditions: DAPI nuclear morphology
[5] = tested on: NCI-H929; conditions: DAPI nuclear morphology

With `CCN1CCN(C(c2ccc(C(F)(F)F)cc2)c2ccc3cccnc3c2O)CC1` (stereo not given) the IC50 [1] was 700 nM and 300 nM, the IC50 [2] was 1200 nM and 1100 nM and the IC50 [3] was over 25000 nM. For the same molecule, the IC50 [4] was 2200 nM and 3300 nM and the IC50 [5] was 3600 nM and 1600 nM.
